Patent publication US20190192618A1 (priority 2016, published 2019)
Where two headings read alike, the source gives them in different places. Bridge positions count the residues as written; N and C are the ends. Square brackets hold non-standard residues; d marks the D form. Peptide text beside a SMILES is read from it. Dab = NCC[C@H](N)C(=O)O

Assays:
hERG potassium channel = target: T1, hERG potassium channel (Homo sapiens, UniProt Q12809); experiment: hERG current inhibition, single cell patch clamp in HEK293 cells; type: cell-based
T1 construct: expressed in transfected cells
Method: Currents were recorded via single cell patch clamp.

[1] = GLP 14 day repeat dose study in rats, toxicology; conditions: rat
Method: Parameters assessed during the in-life phase of the study included weekly body weights, clinical observations, survival, food consumption, ophthalmology, clinical pathology, and urine and plasma toxicokinetics. At necropsy, gross observations were recorded, organ weights were measured, and specific tissues were collected. Histopathologic assessment was conducted on tissue sections stained with hematoxylin and eosin (H&E).
The use of an escalation phase was due to the acute histamine and/or complement mediated reactions commonly seen in rats with a broad range of polymyxins.
For toxicology assessment, all animals were observed twice daily for mortality and moribundity. Clinical examinations were performed daily, and detailed physical examinations were performed weekly. Ophthalmic examinations were performed during once prior to study initiation and once during the study. Clinical pathology parameters (including Blood Urea Nitrogen and Serum Creatinine) were analyzed for all animals assigned to the scheduled necropsies. Complete necropsies were conducted on all animals, and selected organs were weighed at the scheduled necropsies. […] Gross lesions and infusion sites were examined from all animals in the low-dose group at the primary necropsy. Recovery was assessed in the mid-dose group and the control group following a 28-day non-dosing period. Following the 28-day non-dosing (recovery) period, complete necropsies were conducted on all animals, and selected organs were weighed at the scheduled necropsy. Selected tissues were examined microscopically from all animals.

[2] = GLP 14 day repeat dose toxicology study in monkeys incl. CNS assessment; conditions: cynomolgus monkey, in vivo
Method: Histopathologic assessment was conducted on tissue sections stained with hematoxylin and eosin (H&E).
The neurological assessment was performed on study day 9 or 10 and compared to both pre-test data (study day −6 or −7) as well as the vehicle control.

[3] = Cardiopulmonary safety pharmacology study in monkeys; conditions: for Body Temperature / Heart Rate / Mean Arterial Blood Pressure / QTc Interval / Respiratory Rate: monkey, in vivo
Method: The monkeys in the study were telemeterized prior to study start. Data was collected in one minute intervals over a 24 hour period. The data was reported in 15 minute intervals over the first three hours.

[4] = Efficacy studies in mice (mouse thigh studies); type: in vivo; conditions: mouse thigh studies with SPR741 and rifampin
Method: A 70 kg human weight was used in all models.
Pharmacologic HED was then calculated using the equation below: […]

[5] = rat, following 14 days of repeated dosing
in vivo [6] = conditions: male, mouse, plasma, 10 mg/kg
Method: (§1) PK analysis was performed using Phoenix® WinNonlin® Version 6.3 (Pharsight Corp. [Mountain View, Calif.]). […] The standard species body weights were assumed to perform allometric scaling purposes. For scaling, mouse, rat, monkey, and human weight were assumed to be 0.02, 0.25, 5, and 70 kg, respectively. PK data from only male animals were available for scaling.
(§2) A MixRatio (additive and multiplicative) weighting was applied for all PK modeling.
(§3) Single dose simulations were done using the low clearance estimate and high clearance estimate obtained from allometric scaling. […] Day 1 data was unavailable for rat. Only 2-3 measurable time points were used in the mouse PK data.

in vivo [7] = conditions: male, rat, plasma, 10 mg/kg
Method: as §1, §2, §3

in vivo [8] = conditions: male, monkey, plasma, 20 mg/kg
Method: as §1, §2, §3

in vivo [9] = conditions: Sprague-Dawley, rat, plasma, iv, 1-hour IV infusion twice daily; for AUC(0-t): AUC(0-24)
[10] = human, fixed exponent, monkey PK data
[11] = human, fixed exponent, mouse PK data
[12] = human, fixed exponent, rat PK data
[13] = human, floating exponent, mouse, rat and monkey PK data
[14] = human, floating exponent, rat and monkey PK data
[15] = 5 mg/kg/day, 5 mg/kg/day, study day 1
[16] = 5 mg/kg/day, 5 mg/kg/day, study day 14
[17] = 10 mg/kg/day, 10 mg/kg/day, study day 1
[18] = 10 mg/kg/day, 10 mg/kg/day, study day 14
[19] = 15 mg/kg/day, 15 mg/kg/day, study day 1
[20] = 15 mg/kg/day, 15 mg/kg/day, study day 14

T1 sequence (Q12809 whole entry): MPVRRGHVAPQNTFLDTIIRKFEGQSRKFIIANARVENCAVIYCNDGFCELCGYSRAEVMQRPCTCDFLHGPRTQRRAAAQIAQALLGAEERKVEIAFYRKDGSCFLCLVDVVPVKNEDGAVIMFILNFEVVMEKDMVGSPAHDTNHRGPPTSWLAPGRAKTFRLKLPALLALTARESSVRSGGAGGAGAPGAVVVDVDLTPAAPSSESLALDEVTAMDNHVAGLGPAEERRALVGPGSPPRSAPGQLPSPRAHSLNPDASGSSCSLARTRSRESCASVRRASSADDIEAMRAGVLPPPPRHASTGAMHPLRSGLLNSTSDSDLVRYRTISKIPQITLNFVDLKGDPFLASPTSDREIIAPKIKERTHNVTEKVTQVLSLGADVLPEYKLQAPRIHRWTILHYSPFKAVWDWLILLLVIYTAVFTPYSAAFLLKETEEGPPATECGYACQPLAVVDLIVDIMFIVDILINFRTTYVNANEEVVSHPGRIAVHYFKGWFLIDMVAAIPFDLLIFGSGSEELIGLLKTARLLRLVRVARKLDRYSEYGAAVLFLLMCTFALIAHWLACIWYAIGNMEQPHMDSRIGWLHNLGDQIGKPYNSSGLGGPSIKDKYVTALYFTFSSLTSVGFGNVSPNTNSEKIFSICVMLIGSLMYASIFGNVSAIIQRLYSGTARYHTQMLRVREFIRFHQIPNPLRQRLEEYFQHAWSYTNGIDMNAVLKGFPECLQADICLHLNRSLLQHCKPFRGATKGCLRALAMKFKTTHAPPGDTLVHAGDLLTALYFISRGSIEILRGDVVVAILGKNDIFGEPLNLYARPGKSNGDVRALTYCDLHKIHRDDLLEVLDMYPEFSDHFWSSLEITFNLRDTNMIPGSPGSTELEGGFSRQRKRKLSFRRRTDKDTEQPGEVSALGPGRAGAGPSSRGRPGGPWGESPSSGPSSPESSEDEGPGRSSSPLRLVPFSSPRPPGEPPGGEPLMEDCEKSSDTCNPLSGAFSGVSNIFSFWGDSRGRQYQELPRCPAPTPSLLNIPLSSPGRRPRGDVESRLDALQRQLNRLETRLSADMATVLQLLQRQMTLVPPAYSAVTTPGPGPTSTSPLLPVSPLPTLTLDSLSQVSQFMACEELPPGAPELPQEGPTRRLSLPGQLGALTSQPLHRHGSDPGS

For `COc1cc(N)c(Cl)cc1C(=O)NC1CCN(CCCOc2ccc(F)cc2)CC1OC` (stereo not shown) [Cisapride, reference compound], the inhibition at 0.047 μg/mL (hERG potassium channel; human) was 79.8%.

For `CC(=O)N[C@H](C(=O)N[C@H](CO)C(=O)N[C@H]1CCNC(=O)[C@H]([C@@H](C)O)NC(=O)[C@H](CCN)NC(=O)[C@H](CCN)NC(=O)[C@H](CC(C)C)NC(=O)[C@@H](Cc2ccccc2)NC(=O)[C@H](CCN)NC1=O)[C@@H](C)O` [SPR741, Acetyl-Thr-dSer-cy[Dab-Dab-dPhe-Leu-Dab-Dab-Thr]] (Ac-T[dS][Dab][Dab][dF]L[Dab][Dab]T; lactam 3-C), the IC50 (hERG potassium channel) was “could not be calculated”, the “Change in mean hERG-mediated potassium currents” value (hERG potassium channel; concentrations up to 300 μg/mL) was “no meaningful change” and the inhibition at 10 μg/mL (hERG potassium channel; human) was 0.08%. The inhibition at 30 μg/mL (hERG potassium channel; human) was -0.09%, the inhibition at 100 μg/mL (hERG potassium channel; human) was 1.62% and the inhibition at 300 μg/mL (hERG potassium channel; human) was 3.87%. The Tolerability ([1]; dose levels higher than 5 mg/kg) was “exhibited toxicity”, the Tolerability ([1]; in vivo, 5 mg/kg) was “well tolerated” and the “% BUN increase relative to control (mg/dL)” value ([1]; in vivo, 10 mg/kg/day) was 34%. The “% BUN increase relative to control (mg/dL)” value ([1]; in vivo, 15 mg/kg/day) was 59%, the “% Control CRN” value ([1]; in vivo, 15 mg/kg/day) was 59% and the NOAEL at 14 days ([2]; both) was 40 mg/kg/day. The Reversibility of nephrotoxicity [2] was “fully reversible”, the “Body Temperature” value ([3]; 5 mg/kg) was 38.3 °C and the “Heart Rate” value ([3]; 5 mg/kg) was 142 bpm. For the same molecule, the “Mean Arterial Blood Pressure” value ([3]; 5 mg/kg) was 105 mm Hg, the “QTc Interval” value ([3]; 5 mg/kg) was 220 ms and the “Respiratory Rate” value ([3]; 5 mg/kg) was 27. The “Body Temperature” value ([3]; 10 mg/kg) was 38.3 °C, the “Heart Rate” value ([3]; 10 mg/kg) was 141 bpm and the “Mean Arterial Blood Pressure” value ([3]; 10 mg/kg) was 104 mm Hg. The “QTc Interval” value ([3]; 10 mg/kg) was 222 ms, the “Respiratory Rate” value ([3]; 10 mg/kg) was 25 and the “Body Temperature” value ([3]; 20 mg/kg) was 38.7 °C. For the same molecule, the “Heart Rate” value ([3]; 20 mg/kg) was 145 bpm, the “Mean Arterial Blood Pressure” value ([3]; 20 mg/kg) was 97 mm Hg and the “QTc Interval” value ([3]; 20 mg/kg) was 220 ms. For the same molecule, the “Respiratory Rate” value ([3]; 20 mg/kg) was 26, the “SPR741-related clinical signs or changes in body weight, body temperature, blood pressures, heart rate, ECG intervals, respiratory rate, tidal volume, minute volume” value ([3]; monkeys, cardiopulmonary study) was “no SPR741-related clinical signs” and the “AUC value of efficacy data” value [4] was 60 µg·h/mL. For the same molecule, the CL (human 70 kg, fixed exponent, monkey PK data) was 70.8 mg/h/kg, the CL (human 70 kg, fixed exponent, mouse PK data) was 57.5 mg/h/kg and the CL (human 70 kg, fixed exponent, rat PK data) was 103 mg/h/kg. It also gave a CL [10] of 1.18 mL/min/kg, a T1/2 [10] of 2.33 h and a CL [11] of 0.958 mL/min/kg. For the same molecule, the T1/2 [11] was 2.16 h, the Vd [11] was 0.179 L/kg and the CL [12] was 1.72 mL/min/kg. The T1/2 [12] was 2.31 h, the Vd [12] was 0.345 L/kg and the CL [13] was 1.5 mL/min/kg. For the same molecule, the T1/2 [13] was 2.44 h, the Vd [13] was 0.315 L/kg and the CL [14] was 0.847 mL/min/kg. The T1/2 [14] was 2.34 h, the Vd [14] was 0.172 L/kg and the “Systemic exposure versus dose” value [5] was “dose dependent proportional systemic exposure”. The Vd (in vivo [6]) was 0.179 L/kg, the clearance (in vivo [6]) was 7.37 mL/min/kg and the Vd (in vivo [7]) was 0.345 L/kg. The clearance (in vivo [7]) was 7.05 mL/min/kg, the Vd (in vivo [8]) was 0.238 L/kg and the clearance (in vivo [8]) was 2.28 mL/min/kg. For the same molecule, the AUC(0-t) (in vivo [9]; [15]) was 8200 ng·h/mL, the AUC(0-t) (in vivo [9]; [16]) was 8300 ng·h/mL and the Cmax (in vivo [9]; [15]) was 3400 ng/mL. It also gave a Cmax (in vivo [9]; [16]) of 3300 ng/mL, an AUC(0-t) (in vivo [9]; [17]) of 25000 ng·h/mL and an AUC(0-t) (in vivo [9]; [18]) of 20300 ng·h/mL. The Cmax (in vivo [9]; [17]) was 9500 ng/mL, the Cmax (in vivo [9]; [18]) was 6700 ng/mL and the AUC(0-t) (in vivo [9]; [19]) was 47400 ng·h/mL. It also gave an AUC(0-t) (in vivo [9]; [20]) of 32900 ng·h/mL, a Cmax (in vivo [9]; [19]) of 14900 ng/mL and a Cmax (in vivo [9]; [20]) of 10800 ng/mL.
